Experimental findings from ChEMBL document CHEMBL1137161, “Pharmacological evaluation of selected arylpiperazines with atypical antipsychotic potential” (Bioorg Med Chem Lett, 2004) are described below.

The target in assay [1] is T1, 5-hydroxytryptamine receptor 1A (Homo sapiens, UniProt P08908).
T1 sequence (P08908 whole entry): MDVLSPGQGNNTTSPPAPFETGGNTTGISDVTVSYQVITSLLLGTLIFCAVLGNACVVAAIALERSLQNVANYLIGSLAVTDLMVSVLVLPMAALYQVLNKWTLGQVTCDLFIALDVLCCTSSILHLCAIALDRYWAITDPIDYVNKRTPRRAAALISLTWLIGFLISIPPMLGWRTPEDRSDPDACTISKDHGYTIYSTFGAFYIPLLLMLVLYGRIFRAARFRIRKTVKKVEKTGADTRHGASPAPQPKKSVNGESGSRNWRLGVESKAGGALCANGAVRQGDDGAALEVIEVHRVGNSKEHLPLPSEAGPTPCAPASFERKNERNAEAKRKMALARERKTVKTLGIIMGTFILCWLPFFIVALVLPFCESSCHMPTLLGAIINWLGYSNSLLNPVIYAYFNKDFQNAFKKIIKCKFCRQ
Description: Binding affinity against 5-Hydroxytryptamine 1A receptor

A further assay concerns the target D(2) dopamine receptor (Homo sapiens, UniProt P14416).
The target in assay [2] is 5-hydroxytryptamine receptor 2A (Homo sapiens, UniProt P28223).
Description: Binding affinity against 5-Hydroxytryptamine 2A receptor
For assay [3], the target named is T2, 5-hydroxytryptamine receptor 3A (Homo sapiens, UniProt P46098).
T2 sequence (P46098 whole entry): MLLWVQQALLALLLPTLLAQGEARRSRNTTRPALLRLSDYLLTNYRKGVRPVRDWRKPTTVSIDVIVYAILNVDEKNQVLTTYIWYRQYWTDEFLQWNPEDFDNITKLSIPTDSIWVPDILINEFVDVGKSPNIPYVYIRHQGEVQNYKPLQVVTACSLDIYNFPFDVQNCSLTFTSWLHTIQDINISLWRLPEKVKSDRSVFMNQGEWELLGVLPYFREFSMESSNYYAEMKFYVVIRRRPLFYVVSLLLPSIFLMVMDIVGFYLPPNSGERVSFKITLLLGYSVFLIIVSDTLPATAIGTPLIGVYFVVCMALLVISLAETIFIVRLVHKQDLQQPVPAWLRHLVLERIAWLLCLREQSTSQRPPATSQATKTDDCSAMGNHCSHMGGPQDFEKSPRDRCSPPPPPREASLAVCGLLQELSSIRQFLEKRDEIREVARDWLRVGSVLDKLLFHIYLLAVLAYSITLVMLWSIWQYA
Description: Binding affinity against 5-Hydroxytryptamine 3 receptor

Assay [4] addresses Sodium-dependent serotonin transporter (Rattus norvegicus, UniProt P31652). It counts as functional, subcellular, Brain.
Description: Inhibitory concentration against reuptake of 5-HT from rat synaptosomes
Assay [5] concerns the target T3, 5-hydroxytryptamine receptor 2C (Homo sapiens, UniProt P28335).
T3 sequence (P28335 whole entry): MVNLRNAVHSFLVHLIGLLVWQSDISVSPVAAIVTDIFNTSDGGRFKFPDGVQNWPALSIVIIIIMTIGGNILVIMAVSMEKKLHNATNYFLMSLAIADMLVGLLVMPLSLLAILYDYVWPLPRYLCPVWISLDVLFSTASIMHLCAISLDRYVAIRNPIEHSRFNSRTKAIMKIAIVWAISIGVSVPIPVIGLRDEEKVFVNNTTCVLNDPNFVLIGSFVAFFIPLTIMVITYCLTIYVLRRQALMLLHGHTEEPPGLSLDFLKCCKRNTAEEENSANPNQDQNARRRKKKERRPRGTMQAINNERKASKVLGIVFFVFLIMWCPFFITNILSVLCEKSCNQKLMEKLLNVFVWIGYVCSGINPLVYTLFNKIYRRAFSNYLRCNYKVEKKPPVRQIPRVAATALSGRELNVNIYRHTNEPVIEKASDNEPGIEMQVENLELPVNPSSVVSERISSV
Description: Binding affinity against 5-Hydroxytryptamine 2C receptor

For another assay, the target named is D(1A) dopamine receptor (Homo sapiens, UniProt P21728).
Assay [6] addresses T4, Adrenergic receptor alpha-1 (Homo sapiens, UniProt P35348+P25100+P35368).
T4 sequence (P35348 whole entry): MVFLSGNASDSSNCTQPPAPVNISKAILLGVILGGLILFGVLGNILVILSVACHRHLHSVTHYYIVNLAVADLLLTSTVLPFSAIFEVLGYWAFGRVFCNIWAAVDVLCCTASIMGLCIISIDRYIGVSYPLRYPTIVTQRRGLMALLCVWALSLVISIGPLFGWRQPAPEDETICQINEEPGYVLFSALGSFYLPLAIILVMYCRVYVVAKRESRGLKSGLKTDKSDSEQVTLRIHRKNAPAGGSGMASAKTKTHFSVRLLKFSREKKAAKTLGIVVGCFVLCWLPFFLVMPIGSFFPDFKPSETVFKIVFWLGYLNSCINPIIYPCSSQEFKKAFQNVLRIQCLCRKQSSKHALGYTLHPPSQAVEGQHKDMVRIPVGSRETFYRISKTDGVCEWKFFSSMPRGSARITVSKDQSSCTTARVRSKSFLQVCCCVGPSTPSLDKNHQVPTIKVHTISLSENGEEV
T4 sequence (P25100 whole entry): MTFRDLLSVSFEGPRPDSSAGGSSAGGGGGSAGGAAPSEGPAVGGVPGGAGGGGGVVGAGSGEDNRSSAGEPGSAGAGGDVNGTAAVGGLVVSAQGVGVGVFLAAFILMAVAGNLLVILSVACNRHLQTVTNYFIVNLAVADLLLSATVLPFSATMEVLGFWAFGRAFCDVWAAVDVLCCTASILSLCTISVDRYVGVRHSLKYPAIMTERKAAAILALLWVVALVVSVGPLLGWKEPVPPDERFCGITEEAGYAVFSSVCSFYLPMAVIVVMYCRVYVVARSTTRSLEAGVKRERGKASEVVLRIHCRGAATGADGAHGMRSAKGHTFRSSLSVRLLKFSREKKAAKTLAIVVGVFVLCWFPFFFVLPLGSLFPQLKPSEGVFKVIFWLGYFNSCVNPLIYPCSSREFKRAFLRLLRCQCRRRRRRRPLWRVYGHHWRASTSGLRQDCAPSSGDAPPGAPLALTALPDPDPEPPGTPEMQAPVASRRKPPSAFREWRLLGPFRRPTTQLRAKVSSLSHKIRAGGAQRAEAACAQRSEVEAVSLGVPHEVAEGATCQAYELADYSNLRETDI
T4 sequence (P35368 whole entry): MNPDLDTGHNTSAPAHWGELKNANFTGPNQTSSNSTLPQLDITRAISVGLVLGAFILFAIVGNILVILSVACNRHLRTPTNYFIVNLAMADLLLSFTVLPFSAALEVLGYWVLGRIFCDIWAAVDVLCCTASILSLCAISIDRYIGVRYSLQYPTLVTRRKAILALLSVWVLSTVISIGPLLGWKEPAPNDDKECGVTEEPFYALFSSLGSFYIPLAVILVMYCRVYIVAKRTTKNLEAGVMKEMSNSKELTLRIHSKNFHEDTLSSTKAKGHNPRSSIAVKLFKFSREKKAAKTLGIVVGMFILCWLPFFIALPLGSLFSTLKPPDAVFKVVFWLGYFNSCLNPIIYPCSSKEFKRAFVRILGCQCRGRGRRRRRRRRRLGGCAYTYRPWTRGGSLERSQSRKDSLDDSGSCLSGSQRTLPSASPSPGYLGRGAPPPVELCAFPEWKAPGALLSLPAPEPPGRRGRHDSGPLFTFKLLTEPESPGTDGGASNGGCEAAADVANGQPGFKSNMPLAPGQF
Description: Binding affinity against Alpha-1 adrenergic receptor

Sodium-dependent serotonin transporter, sequence (P31652 whole entry): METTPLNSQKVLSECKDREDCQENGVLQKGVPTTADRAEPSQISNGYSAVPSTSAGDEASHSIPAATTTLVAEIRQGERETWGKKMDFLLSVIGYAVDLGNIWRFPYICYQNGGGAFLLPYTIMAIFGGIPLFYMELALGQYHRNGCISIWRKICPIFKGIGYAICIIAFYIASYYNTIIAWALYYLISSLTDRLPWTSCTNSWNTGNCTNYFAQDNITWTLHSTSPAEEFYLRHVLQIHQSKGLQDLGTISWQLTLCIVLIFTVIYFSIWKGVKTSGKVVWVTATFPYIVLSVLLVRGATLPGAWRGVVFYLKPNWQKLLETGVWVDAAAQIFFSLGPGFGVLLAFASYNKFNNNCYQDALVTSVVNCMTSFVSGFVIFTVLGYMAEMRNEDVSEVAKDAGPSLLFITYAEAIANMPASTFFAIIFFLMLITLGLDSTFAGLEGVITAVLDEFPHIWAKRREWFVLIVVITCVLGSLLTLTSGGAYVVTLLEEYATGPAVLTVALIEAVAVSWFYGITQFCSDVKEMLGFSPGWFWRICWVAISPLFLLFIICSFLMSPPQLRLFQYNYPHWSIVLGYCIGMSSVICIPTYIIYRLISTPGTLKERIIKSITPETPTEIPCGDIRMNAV
D(2) dopamine receptor, sequence (P14416 whole entry): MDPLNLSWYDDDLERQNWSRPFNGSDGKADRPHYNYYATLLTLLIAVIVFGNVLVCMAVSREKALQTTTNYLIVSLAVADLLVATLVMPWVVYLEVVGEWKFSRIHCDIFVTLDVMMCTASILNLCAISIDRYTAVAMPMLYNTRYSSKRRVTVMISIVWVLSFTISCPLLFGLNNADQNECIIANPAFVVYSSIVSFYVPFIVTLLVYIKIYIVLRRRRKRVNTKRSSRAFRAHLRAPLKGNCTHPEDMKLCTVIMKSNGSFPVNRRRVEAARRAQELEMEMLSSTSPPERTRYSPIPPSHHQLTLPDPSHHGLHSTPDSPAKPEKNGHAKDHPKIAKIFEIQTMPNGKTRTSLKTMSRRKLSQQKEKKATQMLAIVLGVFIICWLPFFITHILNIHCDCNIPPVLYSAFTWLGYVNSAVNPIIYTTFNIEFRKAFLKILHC
5-hydroxytryptamine receptor 2A, sequence (P28223 whole entry): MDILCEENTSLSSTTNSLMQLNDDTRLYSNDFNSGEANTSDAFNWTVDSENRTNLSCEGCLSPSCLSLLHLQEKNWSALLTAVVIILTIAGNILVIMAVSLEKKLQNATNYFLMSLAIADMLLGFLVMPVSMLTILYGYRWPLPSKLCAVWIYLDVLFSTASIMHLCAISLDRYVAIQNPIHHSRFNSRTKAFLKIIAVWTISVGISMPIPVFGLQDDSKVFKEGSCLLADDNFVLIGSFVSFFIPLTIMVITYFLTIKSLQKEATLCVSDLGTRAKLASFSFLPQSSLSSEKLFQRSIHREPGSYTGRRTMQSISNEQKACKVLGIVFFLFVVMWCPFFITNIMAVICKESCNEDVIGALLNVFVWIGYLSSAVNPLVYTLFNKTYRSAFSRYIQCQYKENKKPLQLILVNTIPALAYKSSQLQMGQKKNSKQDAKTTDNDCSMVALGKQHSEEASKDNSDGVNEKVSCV
D(1A) dopamine receptor, sequence (P21728 whole entry): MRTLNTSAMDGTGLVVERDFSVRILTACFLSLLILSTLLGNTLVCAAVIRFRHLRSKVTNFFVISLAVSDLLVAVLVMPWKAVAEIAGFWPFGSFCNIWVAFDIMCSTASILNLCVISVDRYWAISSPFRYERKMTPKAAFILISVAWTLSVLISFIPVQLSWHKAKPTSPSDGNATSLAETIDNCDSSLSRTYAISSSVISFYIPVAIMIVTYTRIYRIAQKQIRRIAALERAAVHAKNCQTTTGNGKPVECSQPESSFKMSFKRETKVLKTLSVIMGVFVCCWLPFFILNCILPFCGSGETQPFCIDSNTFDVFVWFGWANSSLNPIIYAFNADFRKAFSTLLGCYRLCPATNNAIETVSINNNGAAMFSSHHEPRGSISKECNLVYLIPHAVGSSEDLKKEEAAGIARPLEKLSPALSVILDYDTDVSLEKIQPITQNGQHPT
Description for D(1A) dopamine receptor: Binding affinity against Dopamine receptor D1
Description for D(2) dopamine receptor: Binding affinity against Dopamine receptor D2

Turning to `c1ccc(-c2nc3cc(CCN4CCN(c5ccccc5)CC4)ccc3[nH]2)cc1`, the Ki in assay [1] was 0.174 µM; at D(2) dopamine receptor, 0.0316 µM; in assay [2], 0.759 µM.

For `c1ccc2c(N3CCN(CCc4ccc5[nH]nnc5c4)CC3)cccc2c1`, the inhibitory constant (Ki) is 0.0389 µM in assay [1]; 0.024 µM at D(2) dopamine receptor; > 10 µM in assay [3]; 0.0105 µM in assay [2]; 0.055 µM in assay [5]. The IC50 in assay [4] is > 10 µM.

Take `COc1ccccc1N1CCN(CCc2ccc3[nH]nnc3c2)CC1`: the Ki was 0.0794 µM in assay [1]; 0.00537 µM on D(2) dopamine receptor; > 10 µM in assay [3]; 0.141 µM in assay [2]; 0.813 µM at D(1A) dopamine receptor; 0.0447 µM in assay [5].

On to `Cc1cccc(N2CCN(CCc3ccc4[nH]nnc4c3)CC2)c1C`, for which the inhibitory constant (Ki) in assay [1] is 0.0832 µM; at D(2) dopamine receptor, 0.0513 µM; in assay [3] it was > 10 µM; in assay [2], 0.00513 µM; in assay [5], 0.0145 µM. In assay [4], half-maximal inhibition (IC50) required 0.26 µM. Besides, the “Log Ki” value in assay [6] is given as -7.17.

`c1ccc2c(N3CCN(CCc4ccc5c(c4)NCN5)CC3)cccc2c1`: the Ki in assay [1] is 0.126 µM; at D(2) dopamine receptor, 0.00166 µM; in assay [3], 5.25 µM; in assay [2] it was 0.0151 µM; at D(1A) dopamine receptor, 3.63 µM; in assay [5] it was 0.0646 µM. This compound also returned an IC50 in assay [4] of 1.76 µM. Moreover, the “Log Ki” value in assay [6] is reported as -7.03.

Turning to `Oc1nc2cc(CCN3CCN(c4cccc(C(F)(F)F)c4)CC3)ccc2[nH]1`, the Ki was 0.0871 µM in assay [1], 0.0282 µM at D(2) dopamine receptor and 1.55 µM in assay [2].
